Test results reported in PubChem BioAssay AID2060891 (Molecular Pharmacology Branch, DTP, NCI, 2025).
pIC50: −log10 of the molar value. Each block holds one molecule with its values, some of them ahead of it.

Test system: K98450-129-R-PDC complex spheroid growth, percent test/control
Test: Anticancer human tumor K98450-129-R-PDC patient-derived colon adenocarcinoma cell line growth inhibition [RAS]
Settings: for pIC50: curve of first compound; for viability, T/C: stronger effect = lower value
In short: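 Agents were tested in combination matrices in half-log decrements from a top concentration at or near clinical Cmax (10 microM if undetermined). Targets were multi-cell spheroids of tumour lines plus HUVEC and MSC stromal cells.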

[1] = second compound 0.000949 µM, first compound 0.00316 µM
[2] = second compound 0.000949 µM, first compound 0.01 µM
[3] = second compound 0.000949 µM, first compound 0.0316 µM
[4] = second compound 0.000949 µM, first compound 0.1 µM
[5] = second compound 0.000949 µM, first compound 0.316 µM
[6] = second compound 0.000949 µM, first compound 1 µM
[7] = second compound 0.003 µM, first compound 0.00316 µM
[8] = second compound 0.003 µM, first compound 0.01 µM
[9] = second compound 0.003 µM, first compound 0.0316 µM
[10] = second compound 0.003 µM, first compound 0.1 µM
[11] = second compound 0.003 µM, first compound 0.316 µM
[12] = second compound 0.003 µM, first compound 1 µM
[13] = second compound 0.00949 µM, first compound 0.00316 µM
[14] = second compound 0.00949 µM, first compound 0.01 µM
[15] = second compound 0.00949 µM, first compound 0.0316 µM
[16] = second compound 0.00949 µM, first compound 0.1 µM
[17] = second compound 0.00949 µM, first compound 0.316 µM
[18] = second compound 0.00949 µM, first compound 1 µM
[19] = second compound 0.03 µM, first compound 0.00316 µM
[20] = second compound 0.03 µM, first compound 0.01 µM
[21] = second compound 0.03 µM, first compound 0.0316 µM
[22] = second compound 0.03 µM, first compound 0.1 µM
[23] = second compound 0.03 µM, first compound 0.316 µM
[24] = second compound 0.03 µM, first compound 1 µM
[25] = second compound 0.0949 µM, first compound 0.00316 µM
[26] = second compound 0.0949 µM, first compound 0.01 µM
[27] = second compound 0.0949 µM, first compound 0.0316 µM
[28] = second compound 0.0949 µM, first compound 0.1 µM
[29] = second compound 0.0949 µM, first compound 0.316 µM
[30] = second compound 0.0949 µM, first compound 1 µM
[31] = second compound 0.3 µM, first compound 0.00316 µM
[32] = second compound 0.3 µM, first compound 0.01 µM
[33] = second compound 0.3 µM, first compound 0.0316 µM
[34] = second compound 0.3 µM, first compound 0.1 µM
[35] = second compound 0.3 µM, first compound 0.316 µM
[36] = second compound 0.3 µM, first compound 1 µM
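Further: spheroids exposed to agents for seven days before the viability readout.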
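Wherever viability, T/C is given: luminescence used as a proxy for viable cell amount.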

pIC50 (second compound 0.00316 µM): < 6.52
pIC50 (second compound 0.01 µM): 6.57
pIC50 (second compound 0.0316 µM): 6.78
pIC50 (second compound 0.1 µM): 7.14
pIC50 (second compound 0.316 µM): > 9.02
pIC50 (second compound 1 µM): > 9.02
SMILES: CC1(C)CCC(Nc2ncc(C(F)(F)F)c(-c3c[nH]c4c(P(C)(C)=O)c(C#N)ccc34)n2)CN1 (stereo unspecified) + C=CC(=O)N1CCN(c2nc(OCC3CCCN3C)nc3c(F)c(-c4nc(N)cc(C)c4C(F)(F)F)c(Cl)cc23)C(C)C1
viability, T/C (second compound 0.00316 µM, first compound 0.000949 µM): 99.3%
viability, T/C (second compound 0.00316 µM, first compound 0.003 µM): 100%
viability, T/C (second compound 0.00316 µM, first compound 0.00949 µM): 97.8%
viability, T/C (second compound 0.00316 µM, first compound 0.03 µM): 97.6%
viability, T/C (second compound 0.00316 µM, first compound 0.0949 µM): 84.2%
viability, T/C (second compound 0.00316 µM, first compound 0.3 µM): 53.7%
viability, T/C (second compound 0.01 µM, first compound 0.000949 µM): 86.4%
viability, T/C (second compound 0.01 µM, first compound 0.003 µM): 87.3%
viability, T/C (second compound 0.01 µM, first compound 0.00949 µM): 84.2%
viability, T/C (second compound 0.01 µM, first compound 0.03 µM): 86.2%
viability, T/C (second compound 0.01 µM, first compound 0.0949 µM): 70.6%
viability, T/C (second compound 0.01 µM, first compound 0.3 µM): 47.5%
viability, T/C (second compound 0.0316 µM, first compound 0.000949 µM): 70.5%
viability, T/C (second compound 0.0316 µM, first compound 0.003 µM): 76.3%
viability, T/C (second compound 0.0316 µM, first compound 0.00949 µM): 77.3%
viability, T/C (second compound 0.0316 µM, first compound 0.03 µM): 76%
viability, T/C (second compound 0.0316 µM, first compound 0.0949 µM): 58.5%
viability, T/C (second compound 0.0316 µM, first compound 0.3 µM): 41.2%
viability, T/C (second compound 0.1 µM, first compound 0.000949 µM): 60.1%
viability, T/C (second compound 0.1 µM, first compound 0.003 µM): 54.5%
viability, T/C (second compound 0.1 µM, first compound 0.00949 µM): 56.1%
viability, T/C (second compound 0.1 µM, first compound 0.03 µM): 59%
viability, T/C (second compound 0.1 µM, first compound 0.0949 µM): 46%
viability, T/C (second compound 0.1 µM, first compound 0.3 µM): 34.5%
viability, T/C (second compound 0.316 µM, first compound 0.000949 µM): 41.1%
viability, T/C (second compound 0.316 µM, first compound 0.003 µM): 41.3%
viability, T/C (second compound 0.316 µM, first compound 0.00949 µM): 40.6%
viability, T/C (second compound 0.316 µM, first compound 0.03 µM): 41.3%
viability, T/C (second compound 0.316 µM, first compound 0.0949 µM): 37.8%
viability, T/C (second compound 0.316 µM, first compound 0.3 µM): 31%
viability, T/C (second compound 1 µM, first compound 0.000949 µM): 35.1%
viability, T/C (second compound 1 µM, first compound 0.003 µM): 33.3%
viability, T/C (second compound 1 µM, first compound 0.00949 µM): 35.1%
viability, T/C (second compound 1 µM, first compound 0.03 µM): 33.8%
viability, T/C (second compound 1 µM, first compound 0.0949 µM): 32.9%
viability, T/C (second compound 1 µM, first compound 0.3 µM): 32.5%

pIC50 (second compound 0.000949 µM): 6.47
pIC50 (second compound 0.003 µM): 6.68
pIC50 (second compound 0.00949 µM): 7.05
pIC50 (second compound 0.03 µM): > 8.50
pIC50 (second compound 0.0949 µM): > 8.50
pIC50 (second compound 0.3 µM): > 8.50
SMILES: C=CC(=O)Nc1cc(Nc2nccc(-c3cn(C)c4ccccc34)n2)c(OC)cc1N(C)CCN(C)C + CCn1c(-c2cc(N3CCN(C)CC3)cnc2C(C)OC)c2c3cc(ccc31)-c1csc(n1)CC(NC(=O)C1CC1C)C(=O)N1CCCC(N1)C(=O)OCC(C)(C)C2
viability, T/C [1]: 91.9%
viability, T/C [2]: 89.4%
viability, T/C [3]: 94.1%
viability, T/C [4]: 73.6%
viability, T/C [5]: 52.8%
viability, T/C [6]: 22.7%
viability, T/C [7]: 93%
viability, T/C [8]: 92%
viability, T/C [9]: 72.8%
viability, T/C [10]: 66.8%
viability, T/C [11]: 41.8%
viability, T/C [12]: 13.6%
viability, T/C [13]: 74.9%
viability, T/C [14]: 65.2%
viability, T/C [15]: 65.6%
viability, T/C [16]: 49%
viability, T/C [17]: 15.2%
viability, T/C [18]: 8.83%
viability, T/C [19]: 50.5%
viability, T/C [20]: 49%
viability, T/C [21]: 48.8%
viability, T/C [22]: 18.7%
viability, T/C [23]: 10.5%
viability, T/C [24]: 7.69%
viability, T/C [25]: 21%
viability, T/C [26]: 18.5%
viability, T/C [27]: 14.1%
viability, T/C [28]: 10.6%
viability, T/C [29]: 8.27%
viability, T/C [30]: 7.06%
viability, T/C [31]: 12.9%
viability, T/C [32]: 11.8%
viability, T/C [33]: 11.4%
viability, T/C [34]: 8.91%
viability, T/C [35]: 7.33%
viability, T/C [36]: 7.02%

pIC50 (second compound 0.000949 µM): 6.93
pIC50 (second compound 0.003 µM): 7.19
pIC50 (second compound 0.00949 µM): 7.37
pIC50 (second compound 0.03 µM): 8.49
pIC50 (second compound 0.0949 µM): > 8.50
pIC50 (second compound 0.3 µM): > 8.50
SMILES: O=C(c1ccc(F)c(F)c1Nc1ccc(I)cc1F)N1CC(O)([C@@H]2CCCCN2)C1 + CCn1c(-c2cc(N3CCN(C)CC3)cnc2C(C)OC)c2c3cc(ccc31)-c1csc(n1)CC(NC(=O)C1CC1C)C(=O)N1CCCC(N1)C(=O)OCC(C)(C)C2
viability, T/C [1]: 94.8%
viability, T/C [2]: 92%
viability, T/C [3]: 87.4%
viability, T/C [4]: 57.3%
viability, T/C [5]: 10.2%
viability, T/C [6]: 2.95%
viability, T/C [7]: 95.7%
viability, T/C [8]: 87%
viability, T/C [9]: 63.2%
viability, T/C [10]: 45.8%
viability, T/C [11]: 7.54%
viability, T/C [12]: 2.62%
viability, T/C [13]: 67.8%
viability, T/C [14]: 60.7%
viability, T/C [15]: 56%
viability, T/C [16]: 31.1%
viability, T/C [17]: 3.99%
viability, T/C [18]: 2.44%
viability, T/C [19]: 51.7%
viability, T/C [20]: 45%
viability, T/C [21]: 31.1%
viability, T/C [22]: 6.53%
viability, T/C [23]: 2.64%
viability, T/C [24]: 2.51%
viability, T/C [25]: 14.9%
viability, T/C [26]: 10.1%
viability, T/C [27]: 7.08%
viability, T/C [28]: 2.95%
viability, T/C [29]: 2.96%
viability, T/C [30]: 2.57%
viability, T/C [31]: 8.48%
viability, T/C [32]: 8.02%
viability, T/C [33]: 4.92%
viability, T/C [34]: 2.97%
viability, T/C [35]: 3.32%
viability, T/C [36]: 2.59%
